Test [1] deals with BTK phosphorylation at tyrosine 223 (Homo sapiens (Human), UniProt Q06187). In words: Immunoblot analysis of phospho-BTK(Y223) in Ramos cells. The test is classed as cell-based. The note with it: 1 hr treatment, anti-IgM stimulation, western blot. As for the experimental part: Ramos cells were cultured in RPMI-1640 medium with 10% fetal bovine serum (FBS) and 1% penicillin/streptomycin (Gibco BRL). Before the assay, Ramos cells were counted and seeded at 1×10^6 cells/mL, cultured overnight in RPMI-1640 medium with 10% FBS, the cells were centrifuged at 950 rpm for 10 min., then 1˜2×10^6 cells were split into each tube in 300 μL medium. The cells were treated with certain compounds of Compound 1-24 at 0˜3 μM for 1 hr. in 37° C., then the cells were stimulated with 10 μg/mL of anti-IgM (BioLegend) for 5 min., followed by 3 min. spin at 2000 rpm. After aspirating the supernatant, 60 μL of RIPA lysis buffer (50 mM Tris-HCl, 1 mM EDTA, 1% NP-40, 0.5% sodium deoxycholate, and 0.1% SDS, pH 7.4, 150 mM NaCl, 1 mM Na3VO4) was added to the cell pellet to lyse the cells on ice for 30 min. After spin at 10,000 rpm for 5 min., 60 μL of the cell lysate was transferred to a fresh tube, and 20 μL of 4× LDS buffer was added to the tube. The samples were boiled on a 100° C. heat block for 10 min. 25 μL lysate was loaded on to SDS-PAGE gel (NuPAGE™ Novex™ 4-12% Bis-Tris Midi Protein Gels, cat. no. WG1402BOX, ThermoFisher) for western blotting analysis per the manufacturer's instructions. Antibodies used for immunoblot analysis include Btk and p-Btk(Y223) (cat. no. 3553 and 5082; Cell Signaling Technology, Beverly, Mass.). p-Btk(Y223) (cat. no. GTX61791; GeneTex, Inc., Irvine, Calif.). Membranes were detected using infrared fluorescence dye (IRDye® 800CW Donkey anti-Rabbit IgG (H+L), cat. no. P/N 925-32213; IRDye® 680RD Donkey anti-Mouse IgG (H+L), cat. no. P/N 925-68072 and scanned on a LiCor Odyssey scanner (LiCor Biosciences, Lincoln, Nebr.).
On the technique in general: A western blot detects proteins with antibodies after separation by electrophoresis.

The subject of test [2] is EOL-1 cells. In words: Cancer cell growth inhibition, EOL-1. The test is classed as cell-based. The following applies: Homo sapiens, EOL1, 72 hr, cell viability. As for the experimental part: (§1) In order to test certain compounds of Compounds 1 to 24 for cancer cell growth inhibition, a leukemia cancer cell line EOL-1, and triple negative breast cancer cell line MDA-MB-231 was used.
(§2) EOL-1 and MDA-MB-231 cells were cultured in a RPMI-1640 cell culture medium supplemented with 10% fetal bovine serum (FBS) and 1% penicillin/streptomycin (Gibco BRL).
(§3) The cancer cell lines stored in a liquid nitrogen tank were each quickly thawed at 37° C. water bath, and centrifuged to remove the DMSO in the freezing medium. The resulting cell pellet was mixed with a culture medium, incubated in a culture flask at 37° C. under 5% CO2 for 2 to 3 days. The EOL-1 cells were sub-cultured by 1:5˜10 dilution in fresh culture medium. For MD-MB-231 cells, the culture medium was removed and the remaining cells were washed with PBS (Phosphate Buffered Saline) and trypsinized by trypsin-EDTA. The detached cells were sub-cultured by 1:5˜10 dilution in fresh culture medium.
(§4) For the cell growth inhibition assay, the cells were seeded in 96-well cell culture plates at 5×10^4 cells/well for EOL-1 and 5×10^3 cells/well for MDA-MB-231 cells in 50 μL and incubated at 37° C. under 5% CO2 for 3 to 6 hr. before the compounds were added.
(§5) Certain compounds of Compounds 1-24 were dissolved in dimethylsulfoxide (DMSO) to a concentration of 10 mM. The DMSO solution containing test compound was diluted with a culture medium to a final concentration of 600 μM, and then diluted 100 times to 6 μM as top dose followed by 1:3 serial dilutions, and then add 50 μL diluted compounds to the 50 μL cells, with a final top dose at 3 μM and the plate was incubated at 37° C. under 5% CO2 for 72 hr. The cell viability was determined by Cell Meter™ Fluorimetric Cell Cytotoxicity Assay Kit (AAT Bioquest) according to the manufacturer's instructions. Briefly, thaw and warm up the Assay Solution (Component A) to 37° C., and mix it thoroughly. Add 20 μL/well (96-well plate) of Assay Solution (Component A). Mix the reagents by shaking the plate gently for 30 seconds. Incubate the cells in a 37° C., 5% CO2 incubator for 1-24 hr., protected from light. Monitor the fluorescence intensity (bottom read) at Ex/Em=540/590 nm. Alternatively, read the O.D. at 570 nm (the reference wavelength should be 600 nm) to determine the cell viability in each well.

In test [3] the test system is MDA-MB-231 cells. In words: Cancer cell growth inhibition, MDA-MB-231. The class given is cell-based. The note with it: Homo sapiens, 72 hr, cell viability. The protocol:
as §1, §2, §3, §4, §5

For test [4], the target named is BMX (Homo sapiens (Human), UniProt P51813). In words: 33P ATP HotSpot kinase assay, BMX. The following applies: 10 μM ATP. The class given is biochemical. The protocol: (§6) (See, e.g., Ma, et al, 2008 Expert Opin Drug Discov. 3(6): 607-621.)
(§7) Each of Compound-1 to Compound-24 was measured for its inhibitory activity on TEC family kinases, BMX and ITK. The measurement was carried out in the same process as described above, BMX, ITK enzymes were used.

Test [5] deals with BTK wt (Homo sapiens (Human), UniProt Q06187). The test can be described thus: 33P ATP HotSpot kinase assay, BTK wt. The note with it: 10 μM ATP. The test is classed as biochemical.
From the text: as §6

The target of test [6] is ITK (Homo sapiens (Human), UniProt Q08881). The test can be described thus: 33P ATP HotSpot kinase assay, ITK. The note with it: 10 μM ATP. The class given is biochemical. As for the experimental part:
as §6, §7

Test [7] addresses FAK (Homo sapiens (Human), UniProt Q05397). In words: 33P ATP HotSpot kinase assay, FAK. The note with it: read-out: IC50 FAK, 10 μM ATP.
For test [8], the target named is EGFR wt (Homo sapiens (Human), UniProt P00533). In words: 33P ATP HotSpot kinase assay, EGFR wt. The class given is biochemical. The following applies: 10 μM ATP.
Experimental: Then, Kinase assays were performed using the “HotSpot” assay platform.
Briefly, specific kinase/substrate pairs along with required cofactors were prepared in reaction buffer; 20 mM Hepes pH 7.5, 10 mM MgCl2, 1 mM EGTA, 0.02% Brij35, 0.02 mg/ml BSA, 0.1 mM Na3VO4, 2 mM DTT, 1% DMSO. Compounds were delivered into the reaction, followed about 20 minutes later by addition of a mixture of ATP (Sigma, St. Louis Mo.) and ^33P ATP (Perkin Elmer, Waltham Mass.) to a final concentration of 10 μM.
Reactions were carried out at room temperature for 120 min, followed by spotting of the reactions onto P81 ion exchange filter paper (Whatman Inc., Piscataway, N.J.). Unbound phosphate was removed by extensive washing of filters in 0.75% phosphoric acid. […] IC50 values and curve fits were obtained using Prism (GraphPad Software).

A word on the EC50: it is the concentration giving half of the maximal effect. A high value points to weaker potency. By IC50 is commonly meant the concentration at which inhibition is half-maximal.

Chain of EGFR wt (P00533 25-1210): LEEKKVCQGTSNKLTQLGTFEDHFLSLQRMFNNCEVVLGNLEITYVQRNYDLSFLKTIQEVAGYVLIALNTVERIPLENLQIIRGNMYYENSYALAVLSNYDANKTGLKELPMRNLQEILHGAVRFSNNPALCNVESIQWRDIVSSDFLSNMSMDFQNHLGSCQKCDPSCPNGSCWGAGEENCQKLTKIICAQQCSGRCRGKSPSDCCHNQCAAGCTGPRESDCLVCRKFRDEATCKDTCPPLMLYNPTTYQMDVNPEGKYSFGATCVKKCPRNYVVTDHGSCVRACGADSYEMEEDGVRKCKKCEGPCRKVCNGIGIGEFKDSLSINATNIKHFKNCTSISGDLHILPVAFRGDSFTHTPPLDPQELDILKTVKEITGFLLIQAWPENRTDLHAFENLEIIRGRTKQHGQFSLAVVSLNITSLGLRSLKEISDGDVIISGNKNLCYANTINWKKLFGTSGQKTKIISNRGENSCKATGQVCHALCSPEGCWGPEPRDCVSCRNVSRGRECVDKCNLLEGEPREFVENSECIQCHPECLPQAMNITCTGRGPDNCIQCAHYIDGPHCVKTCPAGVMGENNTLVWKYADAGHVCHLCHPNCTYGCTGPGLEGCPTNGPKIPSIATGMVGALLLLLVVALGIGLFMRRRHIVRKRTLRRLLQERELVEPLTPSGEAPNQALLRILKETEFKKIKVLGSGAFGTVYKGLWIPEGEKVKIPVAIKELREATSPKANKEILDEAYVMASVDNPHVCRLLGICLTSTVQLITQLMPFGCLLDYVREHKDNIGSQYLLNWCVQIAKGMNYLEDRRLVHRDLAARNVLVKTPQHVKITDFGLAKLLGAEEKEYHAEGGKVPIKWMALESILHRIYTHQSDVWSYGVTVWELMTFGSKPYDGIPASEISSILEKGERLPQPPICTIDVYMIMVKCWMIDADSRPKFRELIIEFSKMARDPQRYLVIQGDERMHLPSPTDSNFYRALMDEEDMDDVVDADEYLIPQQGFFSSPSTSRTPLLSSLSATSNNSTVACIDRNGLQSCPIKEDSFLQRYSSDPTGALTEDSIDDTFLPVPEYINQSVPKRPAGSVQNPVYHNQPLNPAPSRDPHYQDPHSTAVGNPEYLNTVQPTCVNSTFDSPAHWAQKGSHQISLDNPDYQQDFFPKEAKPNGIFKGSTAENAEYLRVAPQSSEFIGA
Chain of BTK wt (Q06187 whole entry): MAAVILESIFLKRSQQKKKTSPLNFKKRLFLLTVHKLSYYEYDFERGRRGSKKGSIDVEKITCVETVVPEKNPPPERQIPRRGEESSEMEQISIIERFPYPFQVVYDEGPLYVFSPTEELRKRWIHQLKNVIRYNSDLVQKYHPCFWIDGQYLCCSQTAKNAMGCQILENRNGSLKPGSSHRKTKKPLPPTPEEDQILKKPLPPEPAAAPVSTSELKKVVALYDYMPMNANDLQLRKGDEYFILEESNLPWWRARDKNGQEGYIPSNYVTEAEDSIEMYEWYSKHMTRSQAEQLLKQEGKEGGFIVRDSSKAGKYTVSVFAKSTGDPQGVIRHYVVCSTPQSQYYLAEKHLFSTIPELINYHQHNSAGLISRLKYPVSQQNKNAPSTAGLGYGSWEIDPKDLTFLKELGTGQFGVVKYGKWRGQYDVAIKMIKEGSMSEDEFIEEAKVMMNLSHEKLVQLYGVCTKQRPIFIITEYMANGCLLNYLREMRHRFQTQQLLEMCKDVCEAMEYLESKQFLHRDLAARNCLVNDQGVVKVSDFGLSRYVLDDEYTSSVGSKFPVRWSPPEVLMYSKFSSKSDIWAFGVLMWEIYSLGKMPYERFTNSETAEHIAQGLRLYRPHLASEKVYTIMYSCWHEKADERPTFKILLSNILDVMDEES
Chain of BTK phosphorylation at tyrosine 223 (Q06187 whole entry): as above
Chain of FAK (Q05397 whole entry): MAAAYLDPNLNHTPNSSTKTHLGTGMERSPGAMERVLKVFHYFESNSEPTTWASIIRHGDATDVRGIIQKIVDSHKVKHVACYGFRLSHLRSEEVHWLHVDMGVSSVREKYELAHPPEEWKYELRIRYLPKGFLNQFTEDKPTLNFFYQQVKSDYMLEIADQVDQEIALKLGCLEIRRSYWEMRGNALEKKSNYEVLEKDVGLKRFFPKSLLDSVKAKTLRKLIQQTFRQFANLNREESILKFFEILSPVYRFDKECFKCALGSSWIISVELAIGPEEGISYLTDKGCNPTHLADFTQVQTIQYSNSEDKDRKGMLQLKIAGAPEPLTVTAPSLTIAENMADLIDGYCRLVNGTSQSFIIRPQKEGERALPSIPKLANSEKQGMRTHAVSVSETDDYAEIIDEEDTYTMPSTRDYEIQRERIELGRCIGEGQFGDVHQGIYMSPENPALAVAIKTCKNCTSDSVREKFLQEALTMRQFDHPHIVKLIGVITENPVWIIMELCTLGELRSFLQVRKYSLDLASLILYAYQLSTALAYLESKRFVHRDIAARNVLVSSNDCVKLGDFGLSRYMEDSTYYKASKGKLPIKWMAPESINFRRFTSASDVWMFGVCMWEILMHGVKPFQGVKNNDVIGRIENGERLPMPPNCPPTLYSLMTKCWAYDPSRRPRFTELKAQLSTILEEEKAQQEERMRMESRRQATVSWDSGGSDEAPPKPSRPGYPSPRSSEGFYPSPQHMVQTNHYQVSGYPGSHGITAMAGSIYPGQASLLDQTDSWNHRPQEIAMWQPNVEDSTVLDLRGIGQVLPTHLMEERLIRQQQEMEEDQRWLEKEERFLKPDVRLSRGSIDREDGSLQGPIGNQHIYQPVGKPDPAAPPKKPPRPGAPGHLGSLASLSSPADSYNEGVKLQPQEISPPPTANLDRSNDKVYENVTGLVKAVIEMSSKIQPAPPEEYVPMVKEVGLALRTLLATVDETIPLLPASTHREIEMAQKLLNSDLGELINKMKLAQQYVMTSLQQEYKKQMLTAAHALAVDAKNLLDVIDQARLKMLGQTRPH
Chain of BMX (P51813 whole entry): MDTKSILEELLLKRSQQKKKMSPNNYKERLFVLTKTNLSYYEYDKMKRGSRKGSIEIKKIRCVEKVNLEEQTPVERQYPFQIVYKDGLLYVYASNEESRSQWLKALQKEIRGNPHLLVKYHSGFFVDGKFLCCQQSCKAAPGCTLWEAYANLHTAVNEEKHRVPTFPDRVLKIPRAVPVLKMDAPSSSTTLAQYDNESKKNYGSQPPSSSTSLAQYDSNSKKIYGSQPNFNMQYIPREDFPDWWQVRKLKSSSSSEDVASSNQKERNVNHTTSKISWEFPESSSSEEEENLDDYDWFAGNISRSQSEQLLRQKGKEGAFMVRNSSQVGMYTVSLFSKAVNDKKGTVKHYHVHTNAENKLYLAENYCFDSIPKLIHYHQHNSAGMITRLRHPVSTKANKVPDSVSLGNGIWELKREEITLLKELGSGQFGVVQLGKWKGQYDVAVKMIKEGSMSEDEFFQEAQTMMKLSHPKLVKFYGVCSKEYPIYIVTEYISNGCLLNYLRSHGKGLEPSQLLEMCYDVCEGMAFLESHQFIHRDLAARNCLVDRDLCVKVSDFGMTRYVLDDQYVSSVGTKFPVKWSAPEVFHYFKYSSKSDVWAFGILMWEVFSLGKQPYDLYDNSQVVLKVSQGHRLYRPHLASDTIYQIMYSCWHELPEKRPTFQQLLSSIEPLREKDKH
Chain of ITK (Q08881 whole entry): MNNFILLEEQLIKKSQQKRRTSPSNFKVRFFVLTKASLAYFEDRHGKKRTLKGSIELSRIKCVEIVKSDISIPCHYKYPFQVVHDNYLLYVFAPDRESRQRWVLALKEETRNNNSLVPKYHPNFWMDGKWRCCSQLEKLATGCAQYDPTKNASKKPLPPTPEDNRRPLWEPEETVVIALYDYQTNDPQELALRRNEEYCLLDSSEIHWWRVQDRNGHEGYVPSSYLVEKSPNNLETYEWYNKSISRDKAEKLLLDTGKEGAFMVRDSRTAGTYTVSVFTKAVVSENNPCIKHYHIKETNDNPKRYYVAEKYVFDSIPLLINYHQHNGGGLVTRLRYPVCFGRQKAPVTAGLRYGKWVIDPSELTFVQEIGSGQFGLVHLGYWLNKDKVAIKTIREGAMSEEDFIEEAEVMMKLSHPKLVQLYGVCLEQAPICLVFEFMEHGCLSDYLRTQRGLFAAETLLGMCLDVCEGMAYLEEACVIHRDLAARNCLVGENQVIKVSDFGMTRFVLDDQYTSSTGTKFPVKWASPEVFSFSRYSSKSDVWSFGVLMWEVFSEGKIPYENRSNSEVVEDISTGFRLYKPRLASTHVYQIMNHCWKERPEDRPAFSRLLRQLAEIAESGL

In the case of `C=CC(=O)N1CCC[C@@H](Nc2nc(Nc3ccc(OCCCOC4(CC)OCC(C)(C)CO4)cc3)ncc2F)C1` [Compound-1, 1-[(3R)-3-[[2-[4-[3-[(2-ethyl-5,5-dimethyl-1,3-dioxan-2-yl)oxy]propoxy]anilino]-5-fluoro-pyrimidin-4-yl]amino]-1-piperidyl]prop-2-en-1-one], the EC50 in test [1] was in the range of 100 to 1000 nM. Besides, the IC50 in test [2] and in test [3] was more than 3000 nM throughout.
Turning to `CCC(=O)N1CCC[C@@H](Nc2nc(Nc3ccc4c(c3)OCCOCCOCCO4)nc3[nH]cnc23)C1` [Compound-4, 1-[(3R)-3-[[2-(2,5,8,11-tetraoxabicyclo[10.4.0]hexadeca-1(12),13,15-trien-14-ylamino)-9H-purin-6-yl]amino]-1-piperidyl]propan-1-one], the IC50 in test [4] came out at 19.6 nM; in test [5], 144 nM; in test [6] it was 1450 nM; in test [7], 1150 nM. This molecule also came in with an EC50 in test [1] of 100 to 1000 nM.
Consider `C=CC(=O)Nc1cccc(Nc2nc(Nc3ccc4c(c3)OCCOCCOCCO4)ncc2F)c1` [Compound-6, N-[3-[[5-fluoro-2-(2,5,8,11-tetraoxabicyclo[10.4.0]hexadeca-1(12),13,15-trien-14-ylamino)pyrimidin-4-yl]amino]phenyl]prop-2-enamide], for which the IC50 in test [4] is less than 100 nM; in test [5], less than 100 nM; in test [8], 732 nM; in test [6], less than 100 nM; in test [7] it was more than 1000 nM. The 50% effective concentration (EC50) in test [1] was less than 100 nM.
As for `CN([C@@H]1CCCC[C@H]1Oc1nc(Nc2ccc3c(c2)OCCOCCOCCO3)nc2[nH]ccc12)S(C)(=O)=O` [Compound-16, N-methyl-N-[(1R,2R)-2-[[2-(2,5,8,11-tetraoxabicyclo[10.4.0]hexadeca-1(16),12,14-trien-14-ylamino)-7H-pyrrolo[2,3-d]pyrimidin-4-yl]oxy]cyclohexyl]methanesulfonamide], the IC50 in test [5] is more than 1000 nM; in test [8], more than 1000 nM; in test [2], 2000 nM; in test [3], 3000 nM; in test [7], 34.9 nM.
For `CN(C1CCCC1Oc1nc(Nc2ccc3c(c2)OCCOCCOCCO3)nc2[nH]ccc12)S(C)(=O)=O` (stereo not drawn) [Compound-18, N-methyl-N-[2-[[2-(2,5,8,11-tetraoxabicyclo[10.4.0]hexadeca-1(16),12,14-trien-14-ylamino)-7H-pyrrolo[2,3-d]pyrimidin-4-yl]oxy]cyclopentyl]methanesulfonamide], the IC50 was more than 1000 nM in test [5], more than 1000 nM in test [8], 750 nM in test [2] and 1500 nM in test [3].
`c1cc(Nc2nc(Nc3ccc4c(c3)OCCOCCOCCO4)nc3[nH]cnc23)c2cc[nH]c2c1` [Compound-22, N6-(1H-indol-4-yl)-N2-(2,5,8,11-tetraoxabicyclo[10.4.0]hexadeca-1(12),13,15-trien-14-yl)-9H-purine-2,6-diamine]: the 50% inhibitory concentration (IC50) in test [5] was 21.4 nM; in test [8] it was more than 1000 nM; in test [2], 1200 nM; in test [3], more than 3000 nM; in test [7] it was 42.4 nM.
Consider `c1cc(Nc2nc(Nc3ccc4c(c3)OCCOCCOCCO4)nc3[nH]cnc23)c2[nH]ccc2c1` [Compound-23, N6-(1H-indol-7-yl)-N2-(2,5,8,11-tetraoxabicyclo[10.4.0]hexadeca-1(12),13,15-trien-14-yl)-9H-purine-2,6-diamine], for which the IC50 in test [5] was 62.8 nM; in test [8] it was more than 1000 nM; in test [7], 257 nM.
With `C=CC(=O)Nc1cc(C)ccc1Nc1nc(Nc2ccc3c(c2)OCCOCCOCCO3)nc2[nH]ncc12` [Compound-26, N-[5-methyl-2-[[6-(2,5,8,11-tetraoxabicyclo[10.4.0]hexadeca-1(12),13,15-trien-14-ylamino)-1H-pyrazolo[3,4-d]pyrimidin-4-yl]amino]phenyl]prop-2-enamide], 33.3 nM corresponded to half-maximal inhibition in test [5] (IC50).
Still for that read-out and setting: the figure for `CC(=O)Nc1cc(C)ccc1Nc1nc(Nc2ccc3c(c2)OCCOCCOCCO3)nc2[nH]cnc12` [Compound-27, N-[5-methyl-2-[[2-(2,5,8,11-tetraoxabicyclo[10.4.0]hexadeca-1(12),13,15-trien-14-ylamino)-9H-purin-6-yl]amino]phenyl]acetamide] is 16.8 nM.
On to `CC(=O)Nc1cc(F)ccc1Nc1nc(Nc2ccc3c(c2)OCCOCCOCCO3)nc2[nH]cnc12` [Compound-28, N-[5-fluoro-2-[[2-(2,5,8,11-tetraoxabicyclo[10.4.0]hexadeca-1(12),13,15-trien-14-ylamino)-9H-purin-6-yl]amino]phenyl]acetamide], for which 9.37 nM corresponded to half-maximal inhibition in test [5] (IC50).
Same read-out and setting: the figure for `CC(=O)Nc1cc(C(F)(F)F)ccc1Nc1nc(Nc2ccc3c(c2)OCCOCCOCCO3)nc2[nH]cnc12` [Compound-29, N-[2-[[2-(2,5,8,11-tetraoxabicyclo[10.4.0]hexadeca-1(12),13,15-trien-14-ylamino)-9H-purin-6-yl]amino]-5-(trifluoromethyl)phenyl]acetamide] is 67.1 nM.
For `C=CC(=O)Nc1cccc(-c2nc(Nc3ccc4c(c3)OCCOCCOCCO4)ncc2F)c1` [Compound-30, N-[3-[5-fluoro-2-(2,5,8,11-tetraoxabicyclo[10.4.0]hexadeca-1(12),13,15-trien-14-ylamino)pyrimidin-4-yl]phenyl]prop-2-enamide], the IC50 in test [5] was 613 nM; in test [7] it was more than 1000 nM.
`CN([C@@H]1c2ccccc2C[C@H]1Oc1nc(Nc2ccc3c(c2)OCCOCCOCCO3)nc2[nH]cnc12)S(C)(=O)=O` [Compound-31, N-methyl-N-[(1R,2R)-2-[[2-(2,5,8,11-tetraoxabicyclo[10.4.0]hexadeca-1(12),13,15-trien-14-ylamino)-9H-purin-6-yl]oxy]indan-1-yl]methanesulfonamide]: 198 nM corresponded to half-maximal inhibition in test [5] (IC50).
Still for that read-out and setting: the figure for `CN([C@@H]1c2ccccc2C[C@H]1Oc1cc(Nc2ccc3c(c2)OCCOCCOCCO3)ncc1C(F)(F)F)S(C)(=O)=O` [Compound-32, N-methyl-N-[(1R,2R)-2-[[2-(2,5,8,11-tetraoxabicyclo[10.4.0]hexadeca-1(12),13,15-trien-14-ylamino)-5-(trifluoromethyl)-4-pyridyl]oxy]indan-1-yl]methanesulfonamide] is more than 10000 nM.

(Values after patent publication US11440904B2, “Substituted pyrimidines, pharmaceutical compositions and therapeutic methods thereof” (priority 2017, dated 2022).)
